The NIST ThermoML archive (doi:10.1016/j.fluid.2012.01.031)
Numbers after ± are expanded uncertainties.

Conditions: Crystal; DTA

Row | SMILES | Normal melting temperature [°C]
1 | c1ccc2c(c1)oc1ccccc12 [dibenzo[bd]furan] | 82.51 ± 0.41
2 | c1ccc2c(c1)Cc1ccccc1-2 [fluorene] | 114.38 ± 0.41
